Source: patent US20250320198A1, “SALT OF ENDOTHELIN A (ETA) RECEPTOR ANTAGONIST COMPOUND, AND PREPARATION METHOD THEREFOR AND MEDICAL USE THEREOF” (SHENZHEN SALUBRIS PHARMACEUTICALS CO., LTD, priority 2022, published 2025)

Assays:
[1] = Pharmacokinetic study of compound in rats (Embodiment 14), intragastric administration; format: in vivo; conditions: SD rats
Text: SD rats: male, 200-300 g, purchased from Beijing Vital River Laboratory Animal Technology Co., Ltd.
Reagents: dimethyl sulfoxide (DMSO), polyethylene glycol 400 (PEG-400), normal saline, heparin, acetonitrile, formic acid, and propranolol (internal standard) are all commercially available.
Instrument: Thermo Fisher Scientific LC-MS/MS (U300 UPLC, TSQ QUANTUMN ULTRA triple quadrupole mass spectrometer).
The compound was weighed and dissolved in a DMSO-PEG-400-normal saline (5:60:35, v/v/v) system. After intragastric administration to rats, 200 μL of venous blood was collected in a sodium-fluoride heparinized EP tube at 15 minutes, 30 minutes, 1 hour, 2 hours, 5 hours, 7 hours, and 24 hours after administration and centrifuged at 12000 rpm for 2 minutes. Plasma was taken and frozen and preserved at −80° C. for testing. A certain amount of samples for test was precisely weighed and dissolved in DMSO to 2 mg/mL as a stock solution. An appropriate amount of compound stock solution was accurately sucked, and diluted by adding acetonitrile to prepare a standard series solution. 20 μL of each of the above standard series solution was accurately sucked, 180 μL of blank plasma was added, and vortex mixing was performed to prepare plasma samples equivalent to plasma concentrations of 1 ng/mL, 3 ng/mL, 5 ng/mL, 10 ng/mL, 30 ng/mL, 100 ng/mL, 300 ng/mL, 1000 ng/mL, and 3000 ng/mL. […]

[2] = Research on compound microsome: prototype remaining and transformation to Atrasentan in human liver microsomes (+NADPH); format: in vitro ADME; conditions: human liver microsome (+NADPH), 37° C.
Procedure: Human liver microsomes were all purchased from Rild Liver Disease Research (Shanghai) Co., Ltd.
Reagents: dimethyl sulfoxide (DMSO), acetonitrile, formic acid, and propranolol (internal standard) are all commercially available.
Instrument: Thermo Fisher Scientific LC-MS (U300 UPLC, TSQ QUANTUMN ULTRA triple quadrupole mass spectrometer).
A certain amount of compound was precisely weighed and dissolved in DMSO to prepare a 10 mM stock solution, and the stock solution was diluted with a diluent (ACN:H2O=1:1) to a 100 μM working solution, and then diluted with a 0.1 M potassium phosphate buffer solution to a 3 μM administration solution for later use. 75 μL of liver microsomes were taken and added into 925 μL of a 0.1 M potassium phosphate buffer solution to be mixed uniformly to obtain a 1.5 mg/mL liver microsome suspension, and the liver microsome suspension was pre-incubated at 37° C. for 10 minutes. Preparation at 0 o'clock: 15 μL of the above liver microsome suspension was taken and added into a 6 mM NADPH solution, 150 μL of a propranolol acetonitrile solution was added immediately for precipitation, and then 15 μL of the above administration solution was added and mixed uniformly for later use. Preparation of samples at 20 minutes and 60 minutes: 15 μL of the administration solution was taken, 15 μL of the liver microsome suspension and 15 μL of the 6 mM NADPH solution were added and mixed uniformly, and a mixture was incubated at 37° C. for 20 minutes and 60 minutes, respectively. The preparation of the above samples was carried out using dual-pore parallel operation. When the above samples are incubated to the relevant time point, 150 μL of the propranolol acetonitrile solution was added to terminate the reaction. All the above samples were centrifuged at 4000 rpm for 5 minutes, and 100 μL of a supernatant was taken, added into 100 μL of ultrapure water and mixed uniformly for LC-MS/MS analysis. LC-MS/MS detection conditions are as follows:
Chromatographic column: Waters ACQUITY™ PREMIER HSS T3, 50*2.1 mm, 1.8 μm.
Mobile phase: water (0.1% formic acid)—acetonitrile. Perform gradient elution according to the table below.
An initial 0 o'clock was taken as 100%, a relative residual content of the drug at each time point was calculated, and each time point of Atrasentan was taken as 100% to calculate the relative amount of transformation of the compound in the embodiment to Atrasentan.

[3] = Study on hygroscopicity by dynamic vapor sorption (DVS); format: physicochemical
Procedure: Hygroscopicity of sulphate, phosphate, hydrochloride, and oxalate was evaluated using a dynamic vapor sorption (DVS). The test collected percentage changes in mass of samples under a constant temperature condition of 25° C. with changes in humidity.

[4] = Study on stability of salts (chemical stability by HPLC); format: physicochemical

Absorption after intragastric administration compared with Atrasentan (in words) [1]	Prototype remaining quantity (%) Mean ([2]; time 0 min (taken as 100%))	Prototype remaining quantity (%) Mean ([2]; time 20 min)	Prototype remaining quantity (%) Mean ([2]; time 60 min)	Hygroscopicity (in words) ([3]; 25° C.)	Vapor sorption ([3]; 25° C./80% RH)	Stability (in words) ([4]; 25° C./60% RH and 40° C./75% RH, one week)	Purity (area %) ([4]; 25° C./60% RH, one week)	Purity (area %) ([4]; 40° C./75% RH, one week)	Purity (area %) ([4]; Start)	SMILES	Exposure level in rats compared with the same dosage of Atrasentan (in words) [1]
not as good as that of Atrasentan	100.0%	0.10%	0.47%							CCCCN(CCCC)C(=O)CN1C[C@H](c2ccc3c(c2)OCO3)[C@@H](C(=O)OC(C)OC(=O)OC2CC2)[C@@H]1c1ccc(OC)cc1 (stereo partly drawn) [Compound 7, 1-[(cyclopropoxycarbonyl)oxy]ethyl-(2R,3R,4S)-4-(benzo[d][1,3]dioxolane-5-yl)-1-[2-(dibutylamino)-2-oxoethyl]-2-(4-methoxyphenyl)pyrrolidine-3-carboxylate]	significantly lower than that of the same dosage of Atrasentan
				lower hygroscopicity	1.52%	good stability	98.81 area %	95.49 area %	99.29 area %	CCCCN(CCCC)C(=O)CN1C[C@H](c2ccc3c(c2)OCO3)[C@@H](C(=O)OC(C)OC(=O)OC(C)C)[C@@H]1c1ccc(OC)cc1 (some centres unmarked) [Phosphate]	
